Key:
N-SMase [1] = molecular target: T1, N-SMase (Homo sapiens, UniProt Q9NY59); test: Assay of N-SMase activity in primary human neurons; format: cell-based; settings: activated astroglia-insulted human neurons, chemical inhibitors
T1 construct: endogenous in cells; host or cells: primary human neurons
T1 sequence (Q9NY59 1-655): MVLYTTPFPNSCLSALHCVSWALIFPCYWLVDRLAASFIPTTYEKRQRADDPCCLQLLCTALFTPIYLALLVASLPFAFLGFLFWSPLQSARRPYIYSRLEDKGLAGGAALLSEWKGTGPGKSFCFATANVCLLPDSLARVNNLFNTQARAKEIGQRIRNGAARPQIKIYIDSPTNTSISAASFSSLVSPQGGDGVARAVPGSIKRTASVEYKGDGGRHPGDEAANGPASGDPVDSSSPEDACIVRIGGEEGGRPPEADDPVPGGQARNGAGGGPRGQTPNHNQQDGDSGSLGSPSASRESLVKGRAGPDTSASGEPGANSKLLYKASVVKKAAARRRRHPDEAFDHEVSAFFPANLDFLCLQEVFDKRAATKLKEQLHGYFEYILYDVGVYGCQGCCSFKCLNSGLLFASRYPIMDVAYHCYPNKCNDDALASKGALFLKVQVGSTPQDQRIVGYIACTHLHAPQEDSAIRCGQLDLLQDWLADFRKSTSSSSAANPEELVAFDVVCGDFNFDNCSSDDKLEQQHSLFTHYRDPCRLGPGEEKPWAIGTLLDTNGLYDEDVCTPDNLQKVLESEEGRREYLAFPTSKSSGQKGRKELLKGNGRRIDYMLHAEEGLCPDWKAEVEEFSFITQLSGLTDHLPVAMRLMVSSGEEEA
Description: (§1) Activities of SMase(s) were assayed as described by. Briefly, after treatment, the cells were washed with PBS, harvested in PBS, divided into two halves, and centrifuged. The fraction for N-SMase was resuspended in buffer A (100 mM Tris-HCl, pH 7.4, 0.1% Triton X-100, 1 mM EDTA, and protease inhibitors), and the cell suspension was sonicated and centrifuged at 500×g at 4° C. for 5 min. The supernatant was used as the enzyme source for N-SMase. The reaction mixture contained enzyme preparation in buffer A containing 5 nmol of [^14C] sphingomyelin, 5 nmol of phosphatidylserine, 5 mM dithiothreitol, and 5 mM MgC¾ in a final volume of 100 μl. Similarly, the fraction for A-SMase was resuspended in buffer B (100 mM sodium acetate, pH 5.0, 0.1% Triton X-100, and protease inhibitors). The cell suspension was sonicated and centrifuged. The supernatant was used as the source of A-SMase. The activity of A-SMase was measured in a 100-μl reaction mixture consisting of the enzyme preparation in buffer B and 5 nmol of [^14C] sphingomyelin. The enzyme reaction was initiated by the addition of 50 μl of substrate and stopped by the addition of 1.5 ml of chloroform:methanol (2:1, v/v) and 0.2 ml of water. After vortexing and phase separation, the aqueous phase was removed for counting.
In FIGS. 3A-3E, primary human astrocytes seeded in inserts were stimulated by the combination of Aβ and IL-Iβ as described above. After 24 h, media were removed and inserts were washed and placed on neurons that were pretreated with PTIO for 30 min. In FIG. 3A, after 1 h, activity of N-SMase was measured in total cell extracts of neurons as described above. After 18 h, neuronal viability was examined by the metabolism of MTT (FIG. 3B) and the release of LDH (FIG. 3C). Values obtained from the control group served as 100%, and data obtained in other groups were calculated as percent of control accordingly. Results are mean+S.D. of three different experiments. ^ap<0.001 vs control; ^bp<0.001 vs activated astrocytes. Primary human neurons were treated with 25 μM DETA-NONOate (a NO donor) and at different time points of treatment, activities of N-SMase (FIG. 3D) and A-SMase (FIG. 3E) were monitored. ^ap<0.001 vs control (0 h).

primary human astroglia = test: NO synthesis (nitrite, Griess reagent) in primary human astroglia; format: cell-based
Description: Synthesis of NO was determined by assay of culture supernatants for nitrite, a stable reaction product of NO with molecular oxygen, using Griess reagent as described.
After 24 h of stimulation, the concentration of nitrite was measured in supernatants (FIG. 4A) by Griess reagent. […] Cells were treated with ASO/ScO for 40 h followed by stimulation with the combination of fibrillar Aβ and IL-Iβ as above. After 6 h, the expression of iNOS mRNA was analyzed by both semi-quantitative RT-PCR (C) and quantitative real-time PCR (FIG. 4D). The expression of TNF-a, IL-6 and IL-Iβ mRNAs were analyzed by semi-quantitative RT-PCR (FIG. 4E). Results are mean±SD of three different experiments. ^ap<0.001 vs control; ^bp<0.001 vs (Aβ+IL-Iβ).

NF-κB = test: EMSA of NF-κB DNA-binding activity in primary human astroglia; format: cell-based; settings: chemical inhibitor, different concentrations, 30 min preincubation; 1 h of stimulation
[2] = test system: neurons (NeuN-positive cells); test: TUNEL/NeuN neuronal apoptosis in vivo in the cortex of Aβ-microinjected mice
primary human astrocytes = test: GFAP and iNOS double-labeling of primary human astrocytes stimulated with Aβ peptides; format: cell-based; settings: peptide stimulation for 24 h
Description: In FIG. 5A, primary astrocytes were stimulated with fibrillar Aβ1-42, oligomeric Aβ1-42 and reverse peptide Aβ42-1 for 24 h followed by double-labeling of GFAP and iNOS. In FIG. 5B, primary human astrocytes seeded in inserts were stimulated with a combination of I μM of oligomeric Aβ1-42 and 10 ng/ml of IL-Iβ in serum free media. […] After 6 h, neuronal apoptosis was monitored by TUNEL. In FIG. 5C, TUNEL-positive cells were counted manually in four different images of each of three coverslips by three individuals blinded to the experiment. Values obtained from the control group (1) served as 100%, and data obtained from other three groups i.e. the oligomeric Aβ-activated astrocytes (OAA) group (2), the ASO-OAA group (3), and the ScO-OAA group (4) was calculated as percent of control accordingly. Results are mean+S.D. of three different experiments. ^ap<0.001 vs control; ^bp<0.001 vs OAA.

iNOS, GFAP and CD11b = test: Immunofluorescence of iNOS, GFAP and CD11b in the cortex of Aβ-microinjected mice; format: in vivo, C57/BL6 mice; settings: cortex, 6 h (and 24 h) of microinjection
Description: […], mice were perfused with 4% paraformaldehyde and their brains were processed for immunohistochemical studies. For double labeling of GFAP with iNOS, sections (6 μm) were incubated with polyclonal anti-GFAP (GFAP: 1000 dilution; Calbiochem) and anti-iNOS (iNOS: 1000 dilution; Calbiochem) for 24 h at 4° C. After three washes in PBST (15 min each), slides were further incubated with Cy5 and Cy2 (Jackson ImmunoResearch Laboratories, Inc.) secondary antibodies for 2 h at room temperature. For negative controls, a set of tissue sections was incubated under similar conditions without the primary antibodies. The samples were mounted and observed under a Bio-Rad MRC1024ES confocal laser scanning microscope.
After 6 h of Aβ microinjection, mice were perfused and double immunofluorescence for GFAP (green) and iNOS (red) (FIG. 8A) and CD 11b (green) and iNOS (red) (FIG. 8B) was performed.

ceramide = test: Ceramide level in vivo in the cortex (DAG kinase assay); set-up: species or system C57/BL6 mice
Description: After treatment, lipids were extracted from cells as described previously. Ceramide content was quantified using diacylglycerol (DAG) kinase and [γ-^32P] ATP as described earlier. Briefly, dried lipids were solubilized in 20 μl of an octyl β-D-glucoside/cardiolipin solution (7.5% octyl β-D-glucoside, 5 mM cardiolipin in 1 mM diethylenetriaminepentaacetic acid) by sonication in a sonicatorbath. The reaction was then carried out in a final volume of 100 μl containing the 20-μl sample solution, 50 mM imidazole HQ, pH 6.6, 50 mM NaCl, 12.5 mM MgCl2, 1 mM EGTA, 2 mM dithiothreitol, 6.6 μg of DAG kinase, and 1 mM [γ-^32P] ATP (specific activity of 1-5×10^5 cpm/nmol) for 30 min at room temperature. The labeled ceramide-1-phosphate was resolved with a solvent system consisting of methyl acetate:n-propyl alcohol:chloroform:methanol:0.25% KQ in water:acetic acid (100:100:100:40:36:2). […] Quantification of ceramide-1-phosphate was carried out by autoradiography and densitometry scanning using a Fluor Chem 8800 imaging system (Alpha Innotech Corporation). Values are expressed either as arbitrary units (absorbance) or as percent of control, considering control as 100%. […]
Control mice received saline injection. […] Control (saline—6 h) group served as 100%, and data from other groups were expressed as percentage of control. […]

N-SMase [3] = test: N-SMase activity in vivo in the cortex after microinjection; set-up: species or system C57/BL6 mice
Description: as §1
(§2) Control mice received saline injection. At indicated time points, cortex was dissected out and divided into two halves—one half for measuring activities of N-SMase (FIG. 7B) and A-SMase (FIG. 7C) and the other for assaying ceramide (FIG. 7D). Control (saline—6 h) group served as 100%, and data from other groups were expressed as percentage of control. Results are mean+SD of five different mice (n=5). ^ap<0.05 vs saline—6 h.

A-SMase = A-SMase activity in vivo in the cortex after microinjection; set-up: species or system C57/BL6 mice
Description: as §1, §2

Row | Compound | activity of N-SMase (N-SMase [1]) | (Aβ+IL-1β)-induced production of NO (primary human astroglia; astroglia preincubated 30 min with different concentrations of chemical inhibitor, nitrite after 24 h) | (Aβ+IL-1β)-induced DNA-binding activity of NF-κB (NF-κB) | apoptotic death of neurons in vivo in the cortex after Aβ microinjection ([2]; 24 h after microinjection) | apoptosis in neurons (NeuN-positive cells) after Aβ microinjection ([2]; within 6 h of microinjection) | astroglial iNOS protein and GFAP (primary human astrocytes) | production of NO by the stimulus alone (primary human astroglia; primary human astroglia, level comparable to IL-1β) | glial expression of iNOS (GFAP-positive astrocytes, CD11b-positive microglia) and GFAP after Aβ microinjection (iNOS, GFAP and CD11b) | glial expression of iNOS (GFAP-positive astrocytes, CD11b-positive microglia) and GFAP after Aβ microinjection (iNOS, GFAP and CD11b; listed as Aβ) | increase in the ceramide level in the cortex (ceramide; after 6 h) | increase in the ceramide level in the cortex (ceramide; after 12 h) | activation of N-SMase in the cortex compared to saline microinjection (N-SMase [3]; 1 μg peptide, over the time course) | increase in the activity of N-SMase in the cortex (N-SMase [3]; 6 h of microinjection, 1 μg peptide) | activity of N-SMase in the cortex, in words (N-SMase [3]; 12 h of microinjection) | increase in the activity of N-SMase in the cortex compared to saline (N-SMase [3]; 12 h of microinjection, 1 μg peptide) | activity of N-SMase in the cortex, in words (N-SMase [3]; 24 h of microinjection) | increase in the activity of N-SMase in vivo in the cortex compared to saline (N-SMase [3]; antisense experiment, Aβ alone) | activity of A-SMase in the cortex (A-SMase; 1 μg peptide microinjected, same setting as N-SMase) | increase in the activity of A-SMase after Aβ microinjection (A-SMase; antisense experiment, Aβ alone)
1 | O=C(/C=C/c1ccc(/C=C/C(=O)Nc2ccc(C3=NCCN3)cc2)cc1)Nc1ccc(C2=NCCN2)cc1 [GW4869] | strongly suppressed | markedly suppressed | markedly suppressed | – | – | – | – | – | – | – | – | – | – | – | – | – | – | – | –
2 | fibrillar Aβ1-42: human Aβ peptide (1-42), Bachem, incubated at 50 μM at 37° C. for 5 days | – | – | – | markedly induced | unable to induce any apoptosis | induced the expression of iNOS protein and increased the level of GFAP | capable of inducing | induced | marked increase | about 3 fold | about 4 fold | marked increase | More than 3 fold | increased further | more than 300% | decreased | more than 4 fold | unable to increase | about 35%
